≈ marks a conversion by molar mass, not a printed value. Where two headings read alike, the source gives them in different places.
How the values were obtained:
Escherichia coli BAS849 = assay: MIC assay, E. coli BAS849; type: cell-based
Method: MIC assays were performed in duplicate in 96-well microtiter plates on the basis of the protocol recommended by the Clinical and Laboratory Standards Institute (Cockerill, 2012, Clinical and Laboratory Standards Institute). All presented data are the average of at least three independent assays. Stock solutions of malacidin or daptomycin (2 mg ml^−1 in H2O) were added to the first well in a row and serially diluted (twofold per transfer) across the microtiter plate. CaCl2 was supplemented to media at a final concentration of 15 mM and fetal bovine serum (ATCC) was added to media (1:10) to test the effect of serum. Overnight cultures of bacteria were diluted 5,000-fold, and 50 μl was used as an inoculum in each well. MIC values were determined by visual inspection after 18 h incubation (30° C., static growth). For the enhanced calcium titration experiments, standard MIC assays were performed with methicillin-resistant Staphylococcus aureus (MRSA) PFGE strain type USA300 in media supplemented with CaCl2 at: 25.0, 18.8, 14.1, 7.03, 3.52, 2.50, 1.76, 0.880, 0.440, 0.250 and 0 mM. To assess the effects of monovalent and divalent cations on malacidin activity, standard MIC assays were performed with MRSA USA300 in media supplemented with 15 mM CaCl2, MgCl2, MnCl2, ZnCl2, SrCl2, NaCl and KCl. […]

E. faecium Com15 = assay: MIC assay, E. faecium Com15; type: cell-based, Enterococcus faecium; conditions: Enterococcus faecium Com15
Method: (§1) MIC assays were performed in duplicate in 96-well microtiter plates on the basis of the protocol recommended by the Clinical and Laboratory Standards Institute (Cockerill, 2012, Clinical and Laboratory Standards Institute). All presented data are the average of at least three independent assays. Stock solutions of malacidin or daptomycin (2 mg ml^−1 in H2O) were added to the first well in a row and serially diluted (twofold per transfer) across the microtiter plate. CaCl2 was supplemented to media at a final concentration of 15 mM and fetal bovine serum (ATCC) was added to media (1:10) to test the effect of serum. Overnight cultures of bacteria were diluted 5,000-fold, and 50 μl was used as an inoculum in each well. MIC values were determined by visual inspection after 18 h incubation (30° C., static growth). For the enhanced calcium titration experiments, standard MIC assays were performed with methicillin-resistant Staphylococcus aureus (MRSA) PFGE strain type USA300 in media supplemented with CaCl2 at: 25.0, 18.8, 14.1, 7.03, 3.52, 2.50, 1.76, 0.880, 0.440, 0.250 and 0 mM. To assess the effects of monovalent and divalent cations on malacidin activity, standard MIC assays were performed with MRSA USA300 in media supplemented with 15 mM CaCl2, MgCl2, MnCl2, ZnCl2, SrCl2, NaCl and KCl. To evaluate the effects of pulmonary surfactants on activity against a community-acquired pneumonia-causing pathogen, standard MIC assays were performed with Streptococcus pneumoniae TCH8431 in media supplemented with both 15 mM […] and Survanta (beractant) at a final concentration of 5, 1, 0.5, 0.25 or 0% (volume/volume (v/v) percent).

S. aureus COL = assay: MIC assay, S. aureus COL; type: cell-based, Staphylococcus aureus; conditions: Staphylococcus aureus COL; β-lactams; read-out: MIC
Method: as §1

S. aureus NRS140 = assay: MIC assay, S. aureus NRS140; type: cell-based, Staphylococcus aureus; conditions: Staphylococcus aureus NRS140; β-lactams, Erythromycin, Spectinomycin; read-out: MIC
Method: as §1

[1] = test system: Acinetobacter baumannii ATCC 17978; assay: MIC assay, A. baumannii; type: cell-based
Method: as §1

[2] = test system: Streptococcus pneumoniae TCH8431; assay: MIC assay, S. pneumoniae; type: cell-based; conditions: Streptococcus pneumoniae TCH8431; read-out: MIC
Method: as §1

S. aureus USA300 = assay: MIC assay, S. aureus USA300 (MRSA); type: cell-based, Staphylococcus aureus; conditions: Staphylococcus aureus USA300, β-lactams (Methicillin, Oxacillin, Penicillin)
Method: as §1

[3] = test system: Cryptococcus neoformans ATCC 32045; assay: MIC assay, C. neoformans; type: cell-based; conditions: Cryptococcus neoformans ATCC 32045
Method: as §1

S. aureus NRS108 = assay: MIC assay, S. aureus NRS108; type: cell-based, Staphylococcus aureus; conditions: Staphylococcus aureus NRS108; β-lactams, Gentamicin, Kanamycin; read-out: MIC
Method: as §1

[4] = test system: Pseudomonas aeruginosa PAO1; assay: MIC assay, P. aeruginosa; type: cell-based
Method: as §1

MRSA USA300 = assay: Membrane leakage assay (SYTOX green); type: cell-based, Staphylococcus aureus; conditions: 20 μg ml^−1
Method: The effects of malacidin on membrane integrity was assessed using SYTOX green. In brief, single colonies of MRSA USA300 were grown in LB media with and without 15 mM CaCl2 to an OD600 nm of 0.35. Nine hundred microlitres of cells were mixed with 100 μL of 17 μM SYTOX green dye (Thermo Fisher). The resulting mixture was incubated for 5 min at 22° C., and then distributed to a microtiter plate at 50 μl per well. An initial reading of fluorescence pre-antibiotic addition was measured at excitation and emission wavelengths of 488 nm and 523 nm, respectively. Fifty microlitres of antibiotics was added to respective wells at a final concentration of 20 μg ml^−1. Measurements were immediately collected for 10 min. To assess the effects of malacidin on membrane depolarization, similar assays were set up using the membrane potential probe, DiBAC4 (bis-(1,3-dibutylbarbituric acid)trimethine oxonol). Single colonies of MRSA USA300 were grown in LB media with and without 15 mM CaCl2 to an OD600 nm of 0.35. Nine hundred microlitres of cells were mixed with 100 μl of 20 μg ml DiBAC4dye (Thermo Fisher). The resulting mixture was incubated for 5 min at 22° C., and then distributed to a microtiter plate at 50 μl per well. An initial reading of fluorescence pre-antibiotic addition was measured at excitation and emission wavelengths of 492 nm and 515 nm, respectively. Fifty microlitres of antibiotics was added to respective wells at a final concentration of 20 μg ml^−1. Measurements were immediately collected for 10 min. Representative examples from three technical replicates are shown.

[5] = test system: Candida albicans ATCC 1884; assay: MIC assay, C. albicans; type: cell-based; conditions: Candida albicans ATCC 1884
Method: as §1

[6] = test system: Bacillus subtilis 168 IAI; assay: MIC assay, B. subtilis; type: cell-based; conditions: Bacillus subtilis 168 IAI; read-out: MIC
Method: as §1

S. aureus NRS100 = assay: MIC assay, S. aureus NRS100; type: cell-based, Staphylococcus aureus; conditions: Staphylococcus aureus NRS100; β-lactams, Tetracycline; read-out: MIC
Method: as §1

[7] = test system: Streptococcus pneumoniae TCH8431; conditions: from Silverman et al., 2005; cited from earlier work
E. faecium VRE = assay: MIC assay, E. faecium VRE; type: cell-based, Enterococcus faecium; conditions: Enterococcus faecium VRE; Vancomycin (VRE); read-out: MIC
Method: as §1

S. aureus NRS146 = assay: MIC assay, S. aureus NRS146; type: cell-based, Staphylococcus aureus; conditions: NRS 146 / VISA; Staphylococcus aureus NRS146; β-lactams, Vancomycin (VISA); read-out: MIC
Method: as §1

S. aureus BAA-42 = assay: MIC assay, S. aureus BAA-42; type: cell-based, Staphylococcus aureus; conditions: BAA42; Staphylococcus aureus BAA-42; β-lactams; read-out: MIC
Method: as §1

[8] = test system: Salmonella enterica IR 715; assay: MIC assay, Salmonella enterica; type: cell-based
Method: as §1

[9] = test system: Klebsiella pneumonia ATCC 10031; assay: MIC assay, Klebsiella pneumonia; type: cell-based
Method: as §1

Escherichia coli DH5α = assay: MIC assay, E. coli DH5α; type: cell-based
Method: as §1

[10] = test system: UDP-MurNAc-pentapeptide in MRSA USA300; assay: UDP-MurNAc-pentapeptide accumulation assay; type: cell-based, Staphylococcus aureus; conditions: 10 μg ml^−1, 60 min, UPLC-MS
Method: The intracellular accumulation of the cell wall precursor UDP-MurNAc-pentapeptide after treatment of MRSA USA300 with malacidin was assessed as previously described (Schneider et al., […], Antimicrob Agents Ch 53:1610-18). In brief, single colonies of MRSA USA300 were grown in LB media with and without 15 mM CaCl2 to an OD600 nm of 0.6. […] of cells and medium were incubated with a final concentration of 130 μg ml^−1 chloramphenicol for 15 min at 37° C. Antibiotics to be assayed were added at 10 μg ml^−1 and incubated for 60 min at 37° C. Vancomycin, known to form a complex with lipid II, was used as a positive control. Cells were collected by centrifugation, and resuspended in 30 μl dH2O and incubated in boiling water for 15 min. The cell extract was then centrifuged at 14,000 g. Supernatant was analysed for UDP-linked cell wall precursors by a UPLC-MS system. Experiments were performed with biological replicates.

## CCCCCCCCCC(=O)N[C@@H](Cc1c[nH]c2ccccc12)C(=O)N[C@H](CC(N)=O)C(=O)N[C@@H](CC(=O)O)C(=O)N[C@@H]1C(=O)NCC(=O)N[C@@H](CCCN)C(=O)N[C@@H](CC(=O)O)C(=O)N[C@H](C)C(=O)N[C@@H](CC(=O)O)C(=O)NCC(=O)N[C@H](CO)C(=O)N[C@@H]([C@H](C)CC(=O)O)C(=O)N[C@@H](CC(=O)c2ccccc2N)C(=O)O[C@@H]1C [Daptomycin, daptomycin, reference compound]
Escherichia coli BAS849
  MIC: 50 to 100 µg/mL (≈ 30.9 to 61.7 µM)
E. faecium Com15; read-out: MIC
  MIC: 0.4 to 2 µg/mL (≈ 0.247 to 1.23 µM)
S. aureus COL
  MIC: 0.2 to 0.8 µg/mL (≈ 0.123 to 0.494 µM)
S. aureus NRS140
  MIC: 0.2 to 0.8 µg/mL (≈ 0.123 to 0.494 µM)
[1]; ATCC17978, range of at least three independent experiments, read-out: MIC
  MIC: > 100 µg/mL
[2]
  MIC: 0.1 to 0.2 µg/mL (≈ 0.0617 to 0.123 µM)
S. aureus USA300; read-out: MIC
  MIC: 0.2 to 0.8 µg/mL (≈ 0.123 to 0.494 µM)
[3]; ATCC32045, read-out: MIC
  MIC: > 100 µg/mL
S. aureus NRS108
  MIC: 0.2 to 0.8 µg/mL (≈ 0.123 to 0.494 µM)
[4]; read-out: MIC
  MIC: > 100 µg/mL
MRSA USA300; absence of calcium supplementation
  Membrane leakage (SYTOX green or DiBAC4): No membrane leakage
MRSA USA300; with calcium (15 mM CaCl2)
  Membrane leakage (SYTOX green fluorescence): rapid increase in fluorescence
[5]; ATCC1884, read-out: MIC
  MIC: > 100 µg/mL
[6]
  MIC: 0.2 to 0.4 µg/mL (≈ 0.123 to 0.247 µM)
S. aureus NRS100
  MIC: 0.2 to 0.8 µg/mL (≈ 0.123 to 0.494 µM)
[7]
  Activity in the presence of pulmonary surfactants: loss of activity
E. faecium VRE
  MIC: 0.4 to 2 µg/mL (≈ 0.247 to 1.23 µM)
S. aureus NRS146
  MIC: 0.2 to 0.8 µg/mL (≈ 0.123 to 0.494 µM)
S. aureus BAA-42
  MIC: 0.2 to 0.8 µg/mL (≈ 0.123 to 0.494 µM)
[8]; IR715, read-out: MIC
  MIC: > 100 µg/mL
[9]; Klebsiella pneumoniae, ATCC10031, read-out: MIC
  MIC: > 100 µg/mL
Escherichia coli DH5α; read-out: MIC
  MIC: > 100 µg/mL

## malacidin B
E. faecium Com15
  MIC: 0.8 to 2.0 µg/mL
[1]; range of at least three independent experiments
  MIC: >100 µg/mL
S. aureus USA300
  MIC: 0.4 to 0.8 µg/mL
[3]
  MIC: >100 µg/mL
[4]
  MIC: >100 µg/mL
[5]
  MIC: >100 µg/mL
[8]
  MIC: >100 µg/mL
[9]
  MIC: >100 µg/mL
Escherichia coli DH5α
  MIC: >100 µg/mL

## CN[C@H](CC(C)C)C(=O)N[C@H]1C(=O)N[C@@H](CC(N)=O)C(=O)N[C@H]2C(=O)N[C@H]3C(=O)N[C@H](C(=O)N[C@H](C(=O)O)c4cc(O)cc(O)c4-c4cc3ccc4O)[C@H](O)c3ccc(c(Cl)c3)Oc3cc2cc(c3O[C@@H]2O[C@H](CO)[C@@H](O)[C@H](O)[C@H]2O[C@H]2C[C@](C)(N)[C@H](O)[C@H](C)O2)Oc2ccc(cc2Cl)[C@H]1O [vancomycin, reference compound]
[10]
  Accumulation of cell wall intermediate UDP-MurNAc-pentapeptide: accumulation of the cell wall intermediate UDP-MurNAc-pentapeptide
